The values that follow come from patent US20110300198A1, “HYDROCOLLOID - ESSENTIAL OIL PATCHES” (priority 2010, published 2011).

Where two headings read alike, the source gives them in different places.

A short description of data set [1]: Extraction of lavender essential oil constituents from the skin after patch application. In kind it is in vivo. The note with it: male, Sprague-Dawley, rat, 7.5 % lavender oil in patch, skin under 7.5% lavender oil patch, removed after 60 h, read-out: Concentration extracted from the skin. An excerpt:
(§1) Male Sprague-Dawley rats, weighing 300-350 g, were used in the studies (Harlan, Rehovot, Israel). The experimental protocols were approved by the Hebrew University of Jerusalem Committee on the Use and Care of Animals. Rats were maintained under specified-pathogen-free (SPF) conditions and were allowed to acclimate to the environment for at least 7 days before their use in the study. Rats were anesthetized and the fur on their stomach shaved prior to exposure. Gum karaya patches with and without lavender essential oil were applied to the rat's stomach skin. Each rat was housed in an individual cage in order to prevent oral contamination of the essential oil by one rat eating another's patch. Blood samples (0.5 ml) were taken at 0, 12, 24, 36, 48 and 60 h from a nick at the tip of tail to determine contents of essential-oil components. Rats were restrained and the tail was gently massaged to facilitate blood collection. Blood samples were collected in vials containing 0.1 ml heparin (100 kU, Sigma). […] Urine samples were similarly analyzed by gas chromatography (GC).
Skin to which patches with or without lavender essential oil were adhered were sampled for extraction. […] When a control patch was adhered to the skin, no constituents of lavender essential oil were detected. […]

Data set [2] in a line: Preliminary in-vivo experiment, constituents in urine (GC). The settings on record: male, Sprague-Dawley, rat, 7.5 % lavender essential oil in almond oil, collected urine sample, 84 h after the simulated massage.
From the text: as §1, with “Gum karaya patches with and without lavender essential oil were applied to the rat's stomach skin.” left out, “collection.” for “collection. Blood samples were collected in vials containing 0.1 ml heparin (100 kU, Sigma).”
Similar values of camphor (FIG. 17) were detected following application of a lavender oil patch on the back and abdomen. […] In the blood of rats with an abdomen-adhered patch, more linalyl acetate was detected than in the blood of rats with a back patch. […] In a collected urine sample, 0.01265 mg L^−1 linalool and 0.00903 mg L^−1 linalyl acetate were detected. […] In addition, no traces of camphor were detected in the urine (note that the urine analysis was performed 84 h after the simulated massage).

A short description of data set [3]: In-vivo experiment with WAX column, constituents in blood. The arrangement: species or system rat. The note with it: 7.5% lavender oil patch on abdomen; split injection.
From the text: as §1, with “Sigma). A 10-μl volume of aqueous linalyl isovalerate stock solution was added as an internal standard to each blood sample and samples were stored at −80° C.” for “Sigma).”, “(GC). […]” for “(GC).”
Patches that included lavender essential oil were adhered to the abdomen skin for 60 h. […] Between 12 and 36 h, a similar, non-significant change in levels was detected. […]

For `C=CC(C)(O)CCC=C(C)C` (centres unmarked) [Linalool], in data set [1] (skin (ethanol extract of the application site), topical), the concentration at 60 h was 0.062 µg/mL. In addition, in data set [2] (topical), the concentration at 84 h is 0.0126 µg/mL. Further, the “Level in blood after 60 h” value in data set [3] is on record as “no traces”.

Take `C=CC(C)(CCC=C(C)C)OC(C)=O` (centres unmarked) [Linalyl acetate]: the concentration at 60 h in data set [1] (in vivo, ethanol extract) was 0.241 µg/mL. Further, the concentration at 84 h in data set [2] (in vivo) was 0.00903 µg/mL.
